Source: patent US12213958B2, “Compositions, methods, systems and/or kits for preventing and/or treating neoplasms” (Research Cancer Institute of America, priority 2017, dated 2025)

How the values were obtained:
glioma cells = settings: cited from earlier work
[1] = cited from earlier work
OVCAR 3 Cancer cells = test: Nanoformulated quercetin in mice with implanted tumor; settings: mouse, in vivo
Protocol: Animals—Immunodeficient, female athymic mice aged 5-6 weeks and weighing between 18 and 20 g were purchased from Taconic Biosciences (Albany, NY). All animal studies were conducted at the animal facility of the Veteran Affairs Medical Center, Albany, NY in accordance with and approved by institutional guidelines for humane animal treatment and according to the current guidelines. Mice were maintained under specific pathogen-free conditions and housed under controlled conditions of temperature (20-24° C.) and humidity (60-70%) and 12 h light/dark cycle with ad libitum access to water and food. Mice were allowed to acclimatize for 5 d prior to the start of study.
Treatment—OVCAR 3 Cancer cells (1×10^6) were implanted subcutaneously in right flank of each animal. In the first set of experiments, control, free Quercetin (3 mg/kg), NPS-quercetin(3 mg/kg), and FA-NPs-quercetin (3 mg/kg) were injected subcutaneously to the mice everyday (for 14 days). The control was PBS, after humane sacrifice of animals at 14 days, tumors were harvested and amount of QC was measured.

Which results are given for `O=c1c(O)c(-c2ccc(O)c(O)c2)oc2cc(O)cc(O)c12` [Quercetin, quercetin]?
angiogenesis (glioma cells): suppression of angiogenesis; water solubility [1]: not water soluble

For `O=c1c(O)c(-c2ccc(O)c(O)c2)oc2cc(O)cc(O)c12` [Free QC, quercetin], which “adverse toxic effect on the health of tumor bearing mice” value (OVCAR 3 Cancer cells) is on record?
Its value is “does not have any adverse toxic effect”.
